Consider 25 compounds from PubChem BioAssay AID330 (DTP/NCI, 2004).

Values joined by “and” are separate entries in the source; they are usually repeats but may differ in a detail not shown here. Identical values can stand only once. Inconclusive results and toxic doses are left out.

The subject of this test is P388 leukemia ip, CD2F1 mice, survival T/C. The test is described as follows: NCI In Vivo Anticancer Drug Screen. Data for tumor model P388 Leukemia (intraperitoneal) in CD2F1 (CDF1) mice. The settings on record: endpoint: median survival time, higher = longer survival. In a few lines:
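Mice carrying the transplanted tumor received test compound or vehicle. Survival was recorded in each group, and the value is the treated-group measurement divided by that of the vehicle-treated control group.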

[1] abbreviates: dose: 100.0 mg/kg/injection, schedule: Q04DX003 (ip), vehicle: saline with Tween-80.
Where [2] appears, read: dose: 200.0 mg/kg/injection, schedule: Q04DX003 (ip), vehicle: saline with Tween-80.
The mark [3] stands for this setting: dose: 400.0 mg/kg/injection, schedule: Q04DX003 (ip), vehicle: saline with Tween-80.
The mark [4] stands for this setting: dose: 50.0 mg/kg/injection, schedule: Q01DX005 (ip), vehicle: Klucel (hydroxypropylcellulose) (HPC).
The mark [5] stands for this setting: dose: 100.0 mg/kg/injection, schedule: Q01DX005 (ip), vehicle: Klucel (hydroxypropylcellulose) (HPC).
The mark [6] stands for this setting: dose: 200.0 mg/kg/injection, schedule: Q01DX005 (ip), vehicle: Klucel (hydroxypropylcellulose) (HPC).
The mark [7] stands for this setting: dose: 60.0 mg/kg/injection, schedule: Q01DX005 (ip), vehicle: Klucel (hydroxypropylcellulose) (HPC).
Setting [8] is: dose: 120.0 mg/kg/injection, schedule: Q01DX005 (ip), vehicle: Klucel (hydroxypropylcellulose) (HPC).
[9] abbreviates: dose: 240.0 mg/kg/injection, schedule: Q01DX005 (ip), vehicle: Klucel (hydroxypropylcellulose) (HPC).
Where [10] appears, read: dose: 50.0 mg/kg/injection, schedule: Q01DX005 (ip), vehicle: saline with Tween-80.
Where [11] appears, read: dose: 100.0 mg/kg/injection, schedule: Q01DX005 (ip), vehicle: saline with Tween-80.
Setting [12] is: dose: 12.5 mg/kg/injection, schedule: Q01DX009 (ip), vehicle: Klucel (hydroxypropylcellulose) (HPC).
Setting [13] is: dose: 25.0 mg/kg/injection, schedule: Q01DX009 (ip), vehicle: Klucel (hydroxypropylcellulose) (HPC).
Setting [14] is: dose: 50.0 mg/kg/injection, schedule: Q01DX009 (ip), vehicle: Klucel (hydroxypropylcellulose) (HPC).
[15] abbreviates: dose: 100.0 mg/kg/injection, schedule: Q01DX009 (ip), vehicle: Klucel (hydroxypropylcellulose) (HPC).

Consider `CC(C)(C)SC#CC(Sc1ccccc1)=C(Sc1ccccc1)Sc1ccccc1`, for which the T/C is 100 % of control under setting [1], 100 % of control under setting [2] and 100 % of control under setting [3].

Regarding `S=C(SSC(=S)N1CCOCC1)N1CCOCC1`, the T/C is, setting by setting: (dose: 15.0 mg/kg/injection, schedule: Q01DX005 (ip), vehicle: saline with Tween-80) 97 % of control; (dose: 30.0 mg/kg/injection, schedule: Q01DX005 (ip), vehicle: saline with Tween-80) 102 % of control; (dose: 60.0 mg/kg/injection, schedule: Q01DX005 (ip), vehicle: saline with Tween-80) 102 % of control and 107 % of control; (dose: 120.0 mg/kg/injection, schedule: Q01DX005 (ip), vehicle: saline with Tween-80) 104 % of control.

For the compound `COc1ccc([B-]23OCC[N+]2(CNC(=O)c2ccccc2O)CCO3)cc1` (stereo not drawn), the T/C runs as follows: under setting [4], 103 % of control; under setting [5], 112 % of control; under setting [6], 105 % of control.

In the case of `O=C(Oc1ccc(=O)[nH]n1)c1ccccc1`, the T/C under setting [7] was 102 % of control, the T/C under setting [8] was 115 % of control and the T/C under setting [9] was 111 % of control.

Consider `O=C1C=CC2(C=C1)CCCCC2`, for which the T/C by setting is: (dose: 50.0 mg/kg/injection, schedule: Q01DX001 (ip), vehicle: Klucel (hydroxypropylcellulose) (HPC)) 91 % of control; (dose: 100.0 mg/kg/injection, schedule: Q01DX001 (ip), vehicle: Klucel (hydroxypropylcellulose) (HPC)) 101 % of control.

Take `c1ccc2c(SCCNCCSc3c4ccccc4nc4ccccc34)c3ccccc3nc2c1`: the T/C reads like this: under setting [7], 106 % of control; under setting [8], 105 % of control; under setting [9], 106 % of control.

On to `C=CC(=O)N/C(N)=N\C(N)=O`, for which the T/C runs as follows: (dose: 3.0 mg/kg/injection, schedule: Q01DX005 (ip), vehicle: saline) 110 % of control; (dose: 6.0 mg/kg/injection, schedule: Q01DX005 (ip), vehicle: saline) 112 % of control; (dose: 12.0 mg/kg/injection, schedule: Q01DX005 (ip), vehicle: saline) 113 % of control; (dose: 12.5 mg/kg/injection, schedule: Q01DX005 (ip), vehicle: saline) 113 % of control.

As to `O=C(CCl)Nc1c(Br)cc(F)cc1Br`, the T/C reads like this: (dose: 50.0 mg/kg/injection, schedule: Q01DX009 (ip), vehicle: saline with Tween-80) 88 % of control; (dose: 100.0 mg/kg/injection, schedule: Q01DX009 (ip), vehicle: saline with Tween-80) 99 % of control; (dose: 200.0 mg/kg/injection, schedule: Q01DX009 (ip), vehicle: saline with Tween-80) 104 % of control.

`C=CC(=O)OCCOCN(COCCOC(=O)C=C)c1nc(N(COCCOC(=O)C=C)COCCOC(=O)C=C)nc(N(COCCOC(=O)C=C)COCCOC(=O)C=C)n1`: the T/C by setting is: under setting [10], 99 % of control; under setting [11], 107 % of control.

Regarding `[CH3][Sn]1([Cl])[O]CCNCC[O]1`, the T/C runs as follows: (dose: 25.0 mg/kg/injection, schedule: Q01DX005 (ip), vehicle: Klucel (hydroxypropylcellulose) (HPC)) 102 % of control and 97 % of control; under setting [4], 98 % of control and 100 % of control and 92 % of control; under setting [5], 101 % of control and 109 % of control and 94 % of control; under setting [6], 102 % of control and 103 % of control.

With `CCc1ncc(C(O)c2ccc(Cl)cc2)n1Cc1ccccc1` (stereo not drawn), the T/C reads like this: under setting [7], 93 % of control; under setting [8], 93 % of control; under setting [9], 90 % of control.

For `O=CNc1c2ccccc2c(NC=O)c2ccccc12`, the T/C runs as follows: under setting [10], 92 % of control; under setting [11], 88 % of control; (dose: 200.0 mg/kg/injection, schedule: Q01DX005 (ip), vehicle: saline with Tween-80) 101 % of control.

Take `CC(=O)O/N=C/c1ccncc1`: the T/C (dose: 25.0 mg/kg/injection, schedule: Q04DX003 (ip), vehicle: saline) was 108 % of control; the T/C (dose: 50.0 mg/kg/injection, schedule: Q04DX003 (ip), vehicle: saline) was 101 % of control; the T/C (dose: 100.0 mg/kg/injection, schedule: Q04DX003 (ip), vehicle: saline) is 107 % of control; the T/C (dose: 200.0 mg/kg/injection, schedule: Q04DX003 (ip), vehicle: saline) is 109 % of control; the T/C (dose: 400.0 mg/kg/injection, schedule: Q04DX003 (ip), vehicle: saline) was 117 % of control.

Turning to `O=S(=O)(Cl)CCCCS(=O)(=O)Cl`, the T/C runs as follows: under setting [12], 103 % of control; under setting [13], 91 % of control; under setting [14], 99 % of control and 101 % of control.

`O=S(=O)(OCC#CCOS(=O)(=O)c1ccc(Cl)c(Cl)c1)c1ccc(Cl)c(Cl)c1`: the T/C by setting is: under setting [12], 95 % of control; under setting [13], 92 % of control; under setting [14], 91 % of control; under setting [15], 92 % of control.

On to `CN(C)Cc1cc(C(=O)c2ccccc2)c(O)cc1O`, for which the T/C is, setting by setting: under setting [13], 103 % of control; under setting [14], 103 % of control.

Regarding `Cc1c2cc3c(cc2cc2c4cc5c(cc4cc[n+]12)OCO5)OCO3` (tested in a mixture with another compound), the T/C is, setting by setting: (dose: 0.44 mg/kg/injection, schedule: Q04DX003 (ip), vehicle: saline) 122 % of control; (dose: 5.0 mg/kg/injection, schedule: Q04DX003 (ip), vehicle: saline) 154 % of control; (dose: 7.5 mg/kg/injection, schedule: Q04DX003 (ip), vehicle: saline) 150 % of control.

Turning to `CCn1c(=O)c2[nH]c(C(F)(F)F)nc2n(CC)c1=O`, the T/C was 86 % of control under setting [13] and 99 % of control under setting [14].

`ClCCN(CCCl)c1ccc(/C=N/Nc2ccc3ccccc3n2)cc1`: the T/C was 110 % of control under setting [1], 109 % of control under setting [2] and 106 % of control under setting [3].

`CCN(CC)CC(C)Nc1cc(C)nc2c1ccc1c2ccc2c(NC(C)CN(CC)CC)cc(C)nc21` (stereo not drawn): the T/C by setting is: (dose: 12.5 mg/kg/injection, schedule: Q01DX009 (ip), vehicle: distilled water + Tween-80) 113 % of control; (dose: 25.0 mg/kg/injection, schedule: Q01DX009 (ip), vehicle: distilled water + Tween-80) 111 % of control; (dose: 50.0 mg/kg/injection, schedule: Q01DX009 (ip), vehicle: distilled water + Tween-80) 119 % of control.

`CC(SC(C)C(=O)N/N=C/c1ccc(C#N)cc1)C(=O)N/N=C\c1ccc(C#N)cc1` (stereo not drawn): the T/C is 97 % of control (dose: 100.0 mg/kg/injection, schedule: Q01DX009 (ip), vehicle: suspension in saline); 101 % of control (dose: 200.0 mg/kg/injection, schedule: Q01DX009 (ip), vehicle: suspension in saline); 90 % of control (dose: 400.0 mg/kg/injection, schedule: Q01DX009 (ip), vehicle: suspension in saline).

Regarding `C=C[C@H](c1ccccc1O)c1cc(OC)c(OC)cc1OC`, the T/C is, setting by setting: (dose: 31.75 mg/kg/injection, schedule: Q01DX005 (ip), vehicle: Klucel (hydroxypropylcellulose) (HPC)) 104 % of control; (dose: 63.5 mg/kg/injection, schedule: Q01DX005 (ip), vehicle: Klucel (hydroxypropylcellulose) (HPC)) 103 % of control; (dose: 127.0 mg/kg/injection, schedule: Q01DX005 (ip), vehicle: Klucel (hydroxypropylcellulose) (HPC)) 106 % of control; (dose: 254.0 mg/kg/injection, schedule: Q01DX005 (ip), vehicle: Klucel (hydroxypropylcellulose) (HPC)) 102 % of control.

As to `c1ccc(C23CCCCC2O3)cc1` (stereo not drawn), the T/C under setting [7] was 102 % of control, the T/C under setting [8] is 107 % of control and the T/C under setting [9] is 111 % of control.

For `Cc1ccc(Cl)c(NC(=S)NCc2cccnc2)c1`, the T/C was 97 % of control under setting [14]; 103 % of control under setting [15]; 108 % of control (dose: 200.0 mg/kg/injection, schedule: Q01DX009 (ip), vehicle: Klucel (hydroxypropylcellulose) (HPC)).

In the case of `Cc1cc(=O)n2c(n1)sc1cc(Cl)ccc12`, the T/C is 102 % of control (dose: 18.75 mg/kg/injection, schedule: Q04DX002 (ip), vehicle: Klucel (hydroxypropylcellulose) (HPC)); 93 % of control (dose: 37.5 mg/kg/injection, schedule: Q04DX002 (ip), vehicle: Klucel (hydroxypropylcellulose) (HPC)); 101 % of control (dose: 75.0 mg/kg/injection, schedule: Q04DX002 (ip), vehicle: Klucel (hydroxypropylcellulose) (HPC)).
